We go through three molecules from patent US20030100550A1, “Carboxamide diazepin derivatives, preparation method, use as medicines, pharmaceutical compositions and use thereof” (priority 2002, published 2003).

What is called IC50 is the midpoint of a concentration-inhibition curve.

Holding throughout (type): biochemical
Experiment [1] deals with T1, Cathepsin B (Homo sapiens, UniProt P07858).
T1 construct: purchased Calbiochem
The experiment in a line: Study of Cathepsin B inhibition (fluorescence, Z-arg-arg-AMC). The settings on record: for IC50: substrate Z-arg-arg-AMC 20 μM, enzyme 16 ng/ml, 1 hour at ambient temperature. The method, boiled down: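 Cathepsin B (16 ng/ml final) with 20 μM Z-Arg-Arg-AMC in 100 mM sodium acetate, 5 mM EDTA, DTT, pH 5.5, incubated 1 h at ambient temperature; fluorescence at ex 390/em 460 nm. Compounds screened at 10 μM, % inhibition against plate 0/100% controls; actives retested 50 to 0.5 μM for IC50.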

The target in experiment [2] is T2, Papain (Carica papaya, UniProt P00784).
T2 construct: purchased Sigma
T2 sequence (P00784 134-345): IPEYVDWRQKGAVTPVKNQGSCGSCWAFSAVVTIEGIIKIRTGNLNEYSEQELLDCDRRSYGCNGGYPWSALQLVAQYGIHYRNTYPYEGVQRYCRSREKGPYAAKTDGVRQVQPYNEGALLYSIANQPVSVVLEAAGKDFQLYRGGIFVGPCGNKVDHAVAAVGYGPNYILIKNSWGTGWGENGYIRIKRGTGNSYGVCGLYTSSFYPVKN
The experiment in a line: Study of Papain inhibition (fluorescence). The following applies: for IC50: enzyme 20 ng/ml, 30 minutes at ambient temperature. As to the method: The products to be tested (10 mM) are diluted to […] in DMSO and distributed into Nunc polystyrene 96 well plates at a rate of 2 μl per well. Column 12 of the plate is reserved for the controls and therefore receives […] of DMSO (without products) per well. The plates are stored at −80° C. and thawed on the day of the experiment.
The products are diluted to 50 μM by adding 38 μl of reaction buffer: sodium acetate 100 mM, EDTA 5 mM, DTT […] pH 5.5. The addition as well as all the operations by pipette are carried out with a CybiWell 96 tip pipette. After mixing the solutions, each product is transferred into 2 wells (duplicates) of a Greiner black 384 well plate at a rate of 10 μl per well. Two 96-well plates can therefore be tested in a 384-well plate.
A solution of substrate at 50 μM, Z-Val-arg-AMC (Calbiochem), is prepared in the reaction buffer. The substrate, is then distributed into all the wells of the 384-well plate (20 μl per well).
A solution of Cathepsin K at 12.5 ng/ml is prepared in the reaction buffer and distributed into all the wells of the 384-well plate (20 μl per well) except for the 16 wells serving as 100% inhibition controls (column 23 and 24, lines I to P) which receive 20 μl of enzyme-free buffer.
The plates are then incubated 2H at ambient temperature, then read on Fluoroskan (Labsystems): excitation 390 nm; emission 460 nm
The final concentrations of each of the reagents are: products 10 μM, substrate 20 μM, enzyme 5 ng/ml.
The % inhibition for each of the products is calculated by using points at 0 and 100% inhibition of each plate as references. The products presenting a significant inhibition are then retested on a range of concentrations from 50 to 0.5 μM to determine an IC50.
Study of Papain Inhibition:
Protocol identical to that of Cathepsin K except for:
Papain (Sigma), solution at 50 ng/ml, final concentration 20 ng/ml
Incubation for 30 minutes at ambient temperature

For experiment [3], the target named is T3, Cathepsin K (Homo sapiens, UniProt P43235).
T3 sequence (P43235 115-329): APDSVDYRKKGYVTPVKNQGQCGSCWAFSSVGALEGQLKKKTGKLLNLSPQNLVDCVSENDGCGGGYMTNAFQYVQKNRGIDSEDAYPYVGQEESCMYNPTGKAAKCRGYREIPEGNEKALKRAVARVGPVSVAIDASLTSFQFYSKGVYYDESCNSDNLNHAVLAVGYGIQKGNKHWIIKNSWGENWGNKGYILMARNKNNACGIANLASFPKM
In words: Study of Cathepsin K inhibition (fluorescence, Z-Val-arg-AMC). The following applies: substrate Z-Val-arg-AMC 20 μM, enzyme 5 ng/ml, 2H at ambient temperature; read-out: Cathepsin K IC50. The procedure, abridged:
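Recombinant cathepsin K (5 ng/ml final) with 20 μM Z-Val-Arg-AMC in 100 mM sodium acetate, 5 mM EDTA, DTT, pH 5.5; compounds screened at 10 μM in duplicate, 2 h at ambient temperature, fluorescence ex 390/em 460 nm. % inhibition vs plate 0/100% controls; actives retested 50–0.5 μM for IC50.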

Setting [4] is: printed beside 20 μM, meaning not explained.

For `C[C@H](NC(=O)[C@@H]1CCCN2C(=O)CC[C@H](NC(=O)NCCc3cccs3)C(=O)N12)C(=O)C=[N+]=[N-]` [Example 172, 9-[(9S)-[[[3-(thien-2-yl)-ethyl]amino]carbonyl]amino]-N-((2S)-4-diazo-3-oxo-2-butyl)-octahydro-6,10-dioxo-6H-(1S)-pyridazino[1,2-a][1,2]diazepine-1-carboxamide], the “Cathepsin B, percentage in parentheses beside IC50 value (% inhibition)” value in experiment [1] (setting [4]) was 20 (20%). Also, the “Papain, percentage in parentheses beside IC50 value (% inhibition)” value in experiment [2] (setting [4]) was determined as 10%. In experiment [3], the IC50 was found to be 20 µM.

In the case of `O=C(NCCc1cccs1)N[C@H]1CCC(=O)N2CCC[C@@H](C(=O)N[C@@H](Cc3ccccc3)C(=O)COC(=O)c3c(Cl)cccc3Cl)N2C1=O` [Example 224, 9-[(9S)-[[[2-(thien-2-yl)-ethyl]amino]carbonyl]amino]-N-[(2S)-1-phenyl-4-[(-2,6-dichlorobenzoyl)oxy]-3-oxo-2-butyl]-octahydro-6,10-dioxo-6H-(1S)-pyridazino[1,2-a][1,2]diazepine-1-carboxamide], the IC50 in experiment [1] was 9 µM; in experiment [2], 8 µM; in experiment [3], 20 µM.

As for `CC(C)[C@H](NC(=O)[C@@H]1CCCN2C(=O)CC[C@H](NC(=O)Nc3ccc(Oc4ccccc4)cc3)C(=O)N12)C(=O)CSc1nc2ccccc2s1` [Example 390], the IC50 was determined as 19 µM in experiment [1], 6 µM in experiment [2] and 20 µM in experiment [3].
